pIC50: −log10 of the molar value.
How the values were obtained:
[1] = target: human Nav1.8 (Homo sapiens (Human), UniProt Q9Y5Y9); assay: E-VIPR optical membrane potential assay with electrical stimulation; format: cell-based; settings: HEK cells expressing human Nav1.8
[2] = Microsomal stability assay, human liver microsomes (HLM); format: in vitro ADME; settings: human liver microsomes 0.5 mg/mL, 1 uM substrate, 2 mM NADPH, 37° C., referenced against time zero control
Experimental: (§1) Microsomal Stability Assay.
(§2) Compounds were incubated at 37° C. and shaken for 30 minutes in a phosphate buffered solution with either rat or human liver microsomes and the cofactor NADPH. A time zero control was similarly prepared, however with NADPH excluded. The final incubation concentrations were 1 uM substrate (0.2% DMSO), 0.5 mg/mL liver microsome, 2 mM NADPH, and 0.1 M phosphate. Reactions were quenched and proteins precipitated with the addition of 2 volume equivalents of ice cold acetonitrile containing an internal standard. Following a centrifugation step, aliquots from the quenched incubations were further diluted with 4 volume equivalents of a 50% aqueous methanol solution and then subjected to LC/MS/MS analysis for quantitation of parent compound. Microsome stability values were calculated as the percent of substrate remaining after 30 minutes referenced against the time zero control.
(§3) Microsomal stability in rat and human liver microsomes were determined for selected compounds of the present invention using the above assay. Table 4 provides the human liver microsomes (“HLM”) and rat liver microsomes (“RLM”) stability data as the percent of compound remaining after 30 minutes referenced against the time zero control.

[3] = Microsomal stability assay, rat liver microsomes (RLM); format: in vitro ADME; settings: rat liver microsomes 0.5 mg/mL, 1 uM substrate, 2 mM NADPH, 37° C., referenced against time zero control
Experimental: as §1, §2, §3

human Nav1.8, sequence (Q9Y5Y9 whole entry): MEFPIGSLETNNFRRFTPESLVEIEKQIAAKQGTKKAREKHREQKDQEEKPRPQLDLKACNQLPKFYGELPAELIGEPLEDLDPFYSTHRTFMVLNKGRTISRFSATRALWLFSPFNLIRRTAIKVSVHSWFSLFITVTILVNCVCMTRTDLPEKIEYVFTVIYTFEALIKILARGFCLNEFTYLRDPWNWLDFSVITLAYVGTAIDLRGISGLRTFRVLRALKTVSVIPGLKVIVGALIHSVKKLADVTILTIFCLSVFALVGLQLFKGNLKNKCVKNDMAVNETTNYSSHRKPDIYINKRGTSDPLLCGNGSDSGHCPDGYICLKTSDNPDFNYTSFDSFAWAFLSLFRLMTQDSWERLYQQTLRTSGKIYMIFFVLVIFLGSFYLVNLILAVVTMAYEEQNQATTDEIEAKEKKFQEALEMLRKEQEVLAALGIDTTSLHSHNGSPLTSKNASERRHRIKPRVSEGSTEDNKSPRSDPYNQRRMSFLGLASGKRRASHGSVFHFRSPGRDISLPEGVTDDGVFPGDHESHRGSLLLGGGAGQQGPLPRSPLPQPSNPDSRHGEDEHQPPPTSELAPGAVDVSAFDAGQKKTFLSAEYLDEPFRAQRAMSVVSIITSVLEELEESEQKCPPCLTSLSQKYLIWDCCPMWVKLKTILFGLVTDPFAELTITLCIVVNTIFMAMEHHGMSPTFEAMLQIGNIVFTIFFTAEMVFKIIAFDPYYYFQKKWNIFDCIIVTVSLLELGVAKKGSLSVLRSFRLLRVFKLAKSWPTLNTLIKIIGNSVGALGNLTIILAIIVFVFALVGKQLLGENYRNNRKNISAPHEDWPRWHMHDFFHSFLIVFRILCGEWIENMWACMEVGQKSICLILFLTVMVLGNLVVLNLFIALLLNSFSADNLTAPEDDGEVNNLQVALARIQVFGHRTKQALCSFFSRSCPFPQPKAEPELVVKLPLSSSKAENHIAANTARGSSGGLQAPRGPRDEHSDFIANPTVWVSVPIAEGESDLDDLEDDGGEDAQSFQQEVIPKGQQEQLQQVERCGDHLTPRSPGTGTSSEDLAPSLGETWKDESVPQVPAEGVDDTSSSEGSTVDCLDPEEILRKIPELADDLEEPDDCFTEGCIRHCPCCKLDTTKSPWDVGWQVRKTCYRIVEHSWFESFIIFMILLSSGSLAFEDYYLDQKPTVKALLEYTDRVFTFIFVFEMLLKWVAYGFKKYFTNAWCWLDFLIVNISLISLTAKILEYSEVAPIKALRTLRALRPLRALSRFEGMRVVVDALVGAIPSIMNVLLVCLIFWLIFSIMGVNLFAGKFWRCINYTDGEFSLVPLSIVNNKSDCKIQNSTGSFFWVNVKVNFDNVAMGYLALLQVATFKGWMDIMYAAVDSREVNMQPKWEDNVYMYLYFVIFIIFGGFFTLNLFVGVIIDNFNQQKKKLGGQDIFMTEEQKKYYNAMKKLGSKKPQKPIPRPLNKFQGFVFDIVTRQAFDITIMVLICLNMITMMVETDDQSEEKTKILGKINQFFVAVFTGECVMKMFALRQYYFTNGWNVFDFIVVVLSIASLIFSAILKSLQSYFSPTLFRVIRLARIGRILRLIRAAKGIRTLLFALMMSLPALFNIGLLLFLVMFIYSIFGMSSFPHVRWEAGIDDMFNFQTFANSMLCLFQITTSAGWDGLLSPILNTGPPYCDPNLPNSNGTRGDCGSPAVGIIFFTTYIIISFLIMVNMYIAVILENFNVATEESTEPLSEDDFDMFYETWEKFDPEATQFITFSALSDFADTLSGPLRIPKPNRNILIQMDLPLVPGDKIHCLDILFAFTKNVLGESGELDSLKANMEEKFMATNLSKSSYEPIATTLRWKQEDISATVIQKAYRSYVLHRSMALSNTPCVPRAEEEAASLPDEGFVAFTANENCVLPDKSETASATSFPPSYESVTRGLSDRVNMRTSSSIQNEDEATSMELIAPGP

Row | pIC50 [1] | HLM (% remaining @ 30 minutes) [2] | RLM (% remaining @ 30 minutes) [3] | Structure (SMILES)
1 | 7.52 | 98% | 72% | Cc1cc(F)ccc1Oc1ccc(Cl)cc1C(=O)Nc1cc[nH]c(=O)c1 [Compound 68, 5-chloro-2-(4-fluoro-2-methylphenoxy)-N-(2-oxo-1,2-dihydropyridin-4-yl)benzamide]
2 | 7.36 | 103% | 100% | O=C(Nc1cc[nH]c(=O)c1)c1c(Oc2ccc(F)cc2F)cc(C(F)(F)F)cc1C(F)(F)F [Compound 152, 2-(2,4-difluorophenoxy)-N-(2-oxo-1,2-dihydropyridin-4-yl)-4,6-bis(trifluoromethyl)benzamide]
